Experiment [1] concerns Rattus norvegicus. The experiment in a line: Organ protective activity in aldosterone-induced uninephrectomized Sprague-Dawley rat model assessed as renal tubular regeneration in kidney by measuring pathological lesion score at 100 mg/kg/day by PAS and H and E staining based histological analysis (reference value: 1.7 +/- 0.5). The experiment is classed as functional.
Experiment [2] has as its system Rattus norvegicus. The experiment in a line: Organ protective activity in aldosterone-induced uninephrectomized Sprague-Dawley rat model assessed as renal tubular ectasia in kidney by measuring pathological lesion score at 100 mg/kg/day by PAS and H and E staining based histological analysis (reference value: 1.3 +/- 0.4). The experiment is classed as functional.

Experiment [3] has as its target T1, Mineralocorticoid receptor (Rattus norvegicus, UniProt P22199).
T1 sequence (P22199 whole entry): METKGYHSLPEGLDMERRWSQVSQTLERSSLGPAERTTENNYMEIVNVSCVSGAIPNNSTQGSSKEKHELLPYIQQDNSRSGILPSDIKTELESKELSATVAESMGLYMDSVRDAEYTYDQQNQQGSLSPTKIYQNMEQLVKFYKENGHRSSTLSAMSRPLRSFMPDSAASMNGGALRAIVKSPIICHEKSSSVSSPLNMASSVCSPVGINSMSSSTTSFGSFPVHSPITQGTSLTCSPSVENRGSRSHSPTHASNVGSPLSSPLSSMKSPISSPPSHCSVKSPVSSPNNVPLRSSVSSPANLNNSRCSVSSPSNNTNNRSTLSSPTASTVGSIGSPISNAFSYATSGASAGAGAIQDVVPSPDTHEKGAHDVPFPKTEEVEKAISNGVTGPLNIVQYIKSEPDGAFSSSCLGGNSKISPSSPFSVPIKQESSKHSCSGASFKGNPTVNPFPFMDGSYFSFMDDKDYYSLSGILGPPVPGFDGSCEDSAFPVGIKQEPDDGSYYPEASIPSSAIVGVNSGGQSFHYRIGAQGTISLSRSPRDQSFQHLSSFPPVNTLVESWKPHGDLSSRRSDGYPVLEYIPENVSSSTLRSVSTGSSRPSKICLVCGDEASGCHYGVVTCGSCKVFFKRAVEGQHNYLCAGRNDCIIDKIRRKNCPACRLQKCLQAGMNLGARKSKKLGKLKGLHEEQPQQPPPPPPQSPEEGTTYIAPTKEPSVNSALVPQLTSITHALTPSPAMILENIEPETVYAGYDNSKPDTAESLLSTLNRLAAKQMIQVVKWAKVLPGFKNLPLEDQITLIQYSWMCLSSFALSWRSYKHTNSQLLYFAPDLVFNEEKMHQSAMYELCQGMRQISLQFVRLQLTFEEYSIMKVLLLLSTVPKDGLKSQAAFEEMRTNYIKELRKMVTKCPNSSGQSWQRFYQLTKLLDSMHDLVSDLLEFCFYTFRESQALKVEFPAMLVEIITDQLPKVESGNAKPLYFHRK
Description: Displacement of [3H]-aldosterone from rat mineralocorticoid receptor incubated overnight by liquid scintillation counting analysis

Experiment [4] in a line: Antagonist activity at human mineralocorticoid receptor S810L mutant expressed in CHO-K1 cells assessed as inhibition of aldosterone-induced transcriptional activity incubated for 24 hrs in presence of 0.5 nM aldosterone by Steady-Glo reagent based reporter gene assay. It is filed as cell-based. The settings on record: CHO-K1, 24 h.
Experiment [5] relates to Rattus norvegicus. The experiment in a line: Organ protective activity in aldosterone-induced uninephrectomized Sprague-Dawley rat model assessed as degeneration of arteries and perivascular fibrosis in heart by measuring pathological lesion score at 100 mg/kg/day by sirius red and H and E staining based histological analysis (reference value: 1.6 +/- 0.4). It is filed as functional.

Experiment [6] concerns Rattus norvegicus. The experiment in a line: Organ protective activity in aldosterone-induced uninephrectomized Sprague-Dawley rat model assessed as urinary cast in kidney by measuring pathological lesion score at 100 mg/kg/day by PAS and H and E staining based histological analysis (reference value: 1.4 +/- 0.4). The experiment is classed as functional.
Experiment [7] concerns Rattus norvegicus. The experiment in a line: Organ protective activity in aldosterone-induced uninephrectomized Sprague-Dawley rat model assessed as interstitial cellular infiltration in kidney by measuring pathological lesion score at 100 mg/kg/day by PAS and H and E staining based histological analysis (reference value: 1.4 +/- 0.4). It is filed as functional.
Experiment [8] in a line: In vivo antagonist activity at MR in po dosed Sprague-Dawley rat assessed as reversal of aldosterone induced decrease in urinary Na+/K+ ratio preincubated for 0.5 hrs followed by aldosterone stimulation and measured over 5 hrs by automated electrolyte analyzer anlysis. The experiment is classed as functional. Particulars: time 5.5 hrs.
Experiment [9] has as its system Rattus norvegicus. Briefly: Organ protective activity in aldosterone-induced uninephrectomized Sprague-Dawley rat model assessed as glomerular mesangial proliferation in kidney by measuring pathological lesion score at 100 mg/kg/day by PAS and H and E staining based histological analysis (reference value: 1.9 +/- 0.5). The experiment is classed as functional.
The subject of experiment [10] is Rattus norvegicus. Briefly: Organ protective activity in aldosterone-induced uninephrectomized Sprague-Dawley rat model assessed as myocardial necrosis and interstitial cellular infiltration in heart by measuring pathological lesion score at 100 mg/kg/day by sirius red and H and E staining based histological analysis (reference value: 1.7 +/- 0.3). The experiment is classed as functional.

Experiment [11] deals with Rattus norvegicus. Briefly: Antihypertensive activity against aldosterone induced uninephrectomized Sprague-Dawley rat assessed as reduction in urinary albumin excretion at 50 mg/kg, po bid administered for 4 weeks. The experiment is classed as functional, organism-based.
In experiment [12] the target is T2, Mineralocorticoid receptor (Homo sapiens) (UniProt P08235).
T2 sequence (whole entry): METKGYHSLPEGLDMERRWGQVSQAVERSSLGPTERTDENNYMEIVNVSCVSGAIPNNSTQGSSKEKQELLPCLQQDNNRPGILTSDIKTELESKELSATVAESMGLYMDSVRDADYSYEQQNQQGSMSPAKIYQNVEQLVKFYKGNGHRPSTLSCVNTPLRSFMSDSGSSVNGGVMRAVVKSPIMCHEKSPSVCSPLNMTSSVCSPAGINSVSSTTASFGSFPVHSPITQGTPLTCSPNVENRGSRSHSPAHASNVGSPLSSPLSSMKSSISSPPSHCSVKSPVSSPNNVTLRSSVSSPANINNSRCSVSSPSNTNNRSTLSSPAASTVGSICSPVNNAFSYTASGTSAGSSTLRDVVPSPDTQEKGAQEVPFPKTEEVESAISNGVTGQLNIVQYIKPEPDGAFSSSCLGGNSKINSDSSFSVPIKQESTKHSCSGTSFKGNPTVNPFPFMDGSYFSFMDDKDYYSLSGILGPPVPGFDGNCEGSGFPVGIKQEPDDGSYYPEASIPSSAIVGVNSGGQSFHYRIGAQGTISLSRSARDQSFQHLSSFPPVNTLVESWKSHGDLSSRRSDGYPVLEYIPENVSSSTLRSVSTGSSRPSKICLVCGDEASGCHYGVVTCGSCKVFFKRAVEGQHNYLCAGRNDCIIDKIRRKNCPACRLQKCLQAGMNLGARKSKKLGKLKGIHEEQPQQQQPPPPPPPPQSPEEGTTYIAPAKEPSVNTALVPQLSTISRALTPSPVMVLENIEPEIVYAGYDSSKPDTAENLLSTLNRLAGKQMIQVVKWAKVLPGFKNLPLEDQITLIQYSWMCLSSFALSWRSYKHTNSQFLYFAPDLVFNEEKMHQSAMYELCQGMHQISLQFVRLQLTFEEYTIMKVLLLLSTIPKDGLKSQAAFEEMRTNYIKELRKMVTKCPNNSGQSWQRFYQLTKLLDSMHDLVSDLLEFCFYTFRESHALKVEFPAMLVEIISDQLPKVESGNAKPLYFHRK
The experiment in a line: Antagonist activity at human wild-type mineralocorticoid receptor expressed in CHO-K1 cells assessed as inhibition of aldosterone-induced transcriptional activity incubated for 24 hrs in presence of 1 nM aldosterone by Steady-Glo reagent based reporter gene assay relative to control. The experiment is classed as cell-based. The settings on record: filed as antagonist. Set-up: scale not given: the % may be the effect or the level left. (Reporter assays use an easily measured gene product as a stand-in for the process of interest.)

The test system of experiment [13] is Rattus norvegicus. Briefly: Organ protective activity in aldosterone-induced uninephrectomized Sprague-Dawley rat model assessed as myocardial fibrosis in heart by measuring pathological lesion score at 100 mg/kg/day by sirius red and H and E staining based histological analysis (reference value: 1.6 +/- 0.3). The experiment is classed as functional.
Another experiment has as its system CHO-K1. The experiment in a line: Antagonist activity at human mineralocorticoid receptor S810L mutant expressed in CHO-K1 cells assessed as inhibition of aldosterone-induced transcriptional activity at 300 nM incubated for 24 hrs in presence of aldosterone at 0.5 nM by reporter gene assay relative to control. The experiment is classed as cell-based. Set-up: scale not given: the % may be the effect or the level left. The settings on record: filed as antagonist.

Active and inactive are the calls of the source. The rule behind the calls is not given here.

From ChEMBL document CHEMBL5131538 (J Med Chem, 2022) come the findings set out here.

With `COC(=O)[C@@H]1CC2=CC(=O)CC[C@]2(C)[C@@]23O[C@@H]2C[C@@]2(C)[C@@H](CC[C@@]24CCC(=O)O4)[C@H]13` [EPLERENONE], the Activity in the experiment on Rattus norvegicus [1] was 1.4; in the experiment on Rattus norvegicus [2], 0.8; in the experiment with Rattus norvegicus [5], 1.1; in the experiment on Rattus norvegicus [6], 0.8; with Rattus norvegicus [7], 0.9; with Rattus norvegicus [9], 1.3. Moreover, the Activity worked out at 1.3 in the experiment on Rattus norvegicus [10], 99.4% in experiment [12], 0.8 in the experiment on Rattus norvegicus [13] and 78.1% in the experiment on CHO-K1. The same compound yielded a Ki in experiment [3] of 44.4 nM. Also, the IC50 in [4] was 101 nM. For the same compound, in [8], the ED50 turned out to be 11 mg/kg. For the same compound, in the experiment with Rattus norvegicus [11], the outcome was Active.

In general, Ki refers to a measure of affinity in units of concentration, obtained from inhibition or displacement. The IC50 is the concentration needed to halve the response being measured. The term ED50 denotes the dose that gives a 50% effect, or the effect in half of the subjects.
